# Target: T1, mutant G12C K-RAS (Homo sapiens, UniProt P01116, G12C)
# T1 construct: made in house; host or cells: E. coli BL21
# Assay: covalent adduct formation (CAF) with mutant G12C K-RAS
# Assay type: binding
# Conditions: Table 6; 10 μM, 1 h
# Protocol: Embodiments disclosed herein are further illustrated by the following examples in Tables 1-4 and the Examples hereinbelow. The Tables indicate the compound number, structure, the observed mass spectral molecular weight peak, and covalent adduct formation (CAF) with a mutant G12C K-RAS after 60 minutes at a concentration of 10 micromolar.
row,SMILES,"% CAF @ 10 μM,1 h [%]"
1,"C=CC(=O)N1C[C@H](C)N(c2nc(=O)n3c4c(c(-c5ccc(F)cc5F)c(Cl)cc24)OC[C@H]3CCCN2CCN(C)CC2)C[C@H]1C [Example 264, (3R)-7-((2S,5R)-4-acryloyl-2,5-dimethylpiperazin-1-yl)-9-chloro-10-(2,4-difluorophenyl)-3-(3-(4-methylpiperazin-1-yl)propyl)-2,3-dihydro-5H-[1,4]oxazino[2,3,4-ij]quinazolin-5-one]",97.4
2,"C=CC(=O)N1C[C@H](C)N(c2nc(=O)n3c4c(c(-c5ccc(F)cc5F)c(Cl)cc24)OC[C@@H]3CCCN2C[C@@H]3C[C@H]2CO3)C[C@H]1C [Example 266, (3S)-3-(3-((1S,4S)-2-oxa-5-azabicyclo[2.2.1]heptan-5-yl)propyl)-7-((2S,5R)-4-acryloyl-2,5-dimethylpiperazin-1-yl)-9-chloro-10-(2,4-difluorophenyl)-2,3-dihydro-5H-[1,4]oxazino[2,3,4-ij]quinazolin-5-one]",59.2
3,"C=CC(=O)N1C[C@H](C)N(c2nc(=O)n3c4c(c(-c5ccc(F)cc5F)c(Cl)cc24)OC[C@H]3Cn2ccnc2)C[C@H]1C [Example 267, (3R)-3-((1H-imidazol-1-yl)methyl)-7-((2S,5R)-4-acryloyl-2,5-dimethylpiperazin-1-yl)-9-chloro-10-(2,4-difluorophenyl)-2H-[1,4]oxazino[2,3,4-ij]quinazolin-5(3H)-one]",13.6
4,"C=CC(=O)N1C[C@H](C)N(c2nc(=O)n3c4c(c(-c5ccc(F)cc5F)c(Cl)cc24)OC[C@H]3CN2CCS(=O)(=O)CC2)C[C@H]1C [Example 268, (3R)-7-((2S,5R)-4-acryloyl-2,5-dimethylpiperazin-1-yl)-9-chloro-10-(2,4-difluorophenyl)-3-((1,1-dioxidothiomorpholino)methyl)-2H-[1,4]oxazino[2,3,4-ij]quinazolin-5(3H)-one]",68
5,"C=CC(=O)N1C[C@H](C)N(c2nc(=O)n3c4c(c(-c5ccc(F)cc5F)c(Cl)cc24)OC[C@@H]3CN2CCS(=O)(=O)CC2)C[C@H]1C [Example 269, (3S)-7-((2S,5R)-4-acryloyl-2,5-dimethylpiperazin-1-yl)-9-chloro-10-(2,4-difluorophenyl)-3-((1,1-dioxidothiomorpholino)methyl)-2H-[1,4]oxazino[2,3,4-ij]quinazolin-5(3H)-one]",94.6
6,"C=CC(=O)N1C[C@H](C)N(c2nc(=O)n3c4c(c(-c5ccc(F)cc5F)c(Cl)cc24)OC[C@H]3CCCN2C[C@@H]3C[C@H]2CO3)C[C@H]1C [Example 270, (3R)-3-(3-((1S,4S)-2-oxa-5-azabicyclo[2.2.1]heptan-5-yl)propyl)-7-((2S,5R)-4-acryloyl-2,5-dimethylpiperazin-1-yl)-9-chloro-10-(2,4-difluorophenyl)-2H-[1,4]oxazino[2,3,4-ij]quinazolin-5(3H)-one]",96.4
7,"C=CC(=O)N1C[C@H](C)N(c2nc(=O)n3c4c(c(-c5ccc(F)cc5F)c(Cl)cc24)OC[C@H]3CCCN2CCC(F)(F)C2)C[C@H]1C [Example 271, (3R)-7-((2S,5R)-4-acryloyl-2,5-dimethylpiperazin-1-yl)-9-chloro-10-(2,4-difluorophenyl)-3-(3-(3,3-difluoropyrrolidin-1-yl)propyl)-2,3-dihydro-5H-[1,4]oxazino[2,3,4-ij]quinazolin-5-one]",93.6
8,"C=CC(=O)N1C[C@H](C)N(c2nc(=O)n3c4c(c(-c5ccc(F)cc5F)c(Cl)cc24)OC[C@H]3CCCn2ccnc2)C[C@H]1C [Example 272, (3R)-3-(3-(1H-imidazol-1-yl)propyl)-7-((2S,5R)-4-acryloyl-2,5-dimethylpiperazin-1-yl)-9-chloro-10-(2,4-difluorophenyl)-2,3-dihydro-5H-[1,4]oxazino[2,3,4-ij]quinazolin-5-one]",89.4
9,"C=CC(=O)N1C[C@H](C)N(c2nc(=O)n3c4c(c(-c5ccc(F)cc5F)c(Cl)cc24)OC[C@H]3CCCN2CC(C(=O)NC3CC3)C2)C[C@H]1C [Example 273, 1-(3-((3R)-7-((2S,5R)-4-acryloyl-2,5-dimethylpiperazin-1-yl)-9-chloro-10-(2,4-difluorophenyl)-5-oxo-2,3-dihydro-5H-[1,4]oxazino[2,3,4-ij]quinazolin-3-yl)propyl)-N-cyclopropylazetidine-3-carboxamide]",71.8
10,"C=CC(=O)N1C[C@H](C)N(c2nc(=O)n3c4c(c(-c5ccc(F)cc5F)c(Cl)cc24)OC[C@@H]3CN2CCN(C)CC2=O)C[C@H]1C [Example 274, (3S)-7-((2S,5R)-4-acryloyl-2,5-dimethylpiperazin-1-yl)-9-chloro-10-(2,4-difluorophenyl)-3-((4-methyl-2-oxopiperazin-1-yl)methyl)-2,3-dihydro-5H-[1,4]oxazino[2,3,4-ij]quinazolin-5-one]",67
11,"C=CC(=O)N1CCN(c2nc(=O)n3c4c(c(-c5ccc(F)cc5F)c(Cl)cc24)OCC3)[C@@H](C)C1 [Example 275, 7-((S)-4-acryloyl-2-methylpiperazin-1-yl)-9 chloro-10-(2,4-difluorophenyl)-2,3-dihydro-5H-[1,4]oxazino[2,3,4-ij]quinazolin-5-one]",89.6
12,"C=CC(=O)N1C[C@H](C)N(c2nc(=O)n3c4c(c(-c5ccc(F)cc5F)c(Cl)cc24)OC[C@@H]3COC2CCN(C)CC2)C[C@H]1C [Example 276, (3S)-7-((2S,5R)-4-acryloyl-2,5-dimethylpiperazin-1-yl)-9-chloro-10-(2,4-difluorophenyl)-3-(((1-methylpiperidin-4-yl)oxy)methyl)-2H-[1,4]oxazino[2,3,4-ij]quinazolin-5(3H)-one]",73.5
13,"C=CC(=O)N1C[C@H](C)N(c2nc(=O)n3c4c(c(-c5ccc(F)cc5F)c(Cl)cc24)OC[C@@H]3COC[C@H]2CCCN2C)C[C@H]1C [Example 277, (3S)-7-((2S,5R)-4-acryloyl-2,5-dimethylpiperazin-1-yl)-9-chloro-10-(2,4-difluorophenyl)-3-((((R)-1-methylpyrrolidin-2-yl)methoxy)methyl)-2H-[1,4]oxazino[2,3,4-ij]quinazolin-5(3H)-one]",76.9
14,C=CC(=O)N1C[C@H](C)N(c2nc(=O)n3c4c(c(-c5ccc(F)cc5F)c(Cl)cc24)OC[C@H]3CCCN2CCC(C(=O)NC3CC3)CC2)C[C@H]1C [Example 278],98.3
15,"C=CC(=O)N1C[C@H](C)N(c2nc(=O)n3c4c(c(-c5ccc(F)cc5F)c(Cl)cc24)OC[C@H]3CCCN2CC(F)C2)C[C@H]1C [Example 279, (3R)-7-((2S,5R)-4-acryloyl-2,5-dimethylpiperazin-1-yl)-9-chloro-10-(2,4-difluorophenyl)-3-(3-(3-fluoroazetidin-1-yl)propyl)-2,3-dihydro-5H-[1,4]oxazino[2,3,4-ij]quinazolin-5-one]",97.5
16,"C=CC(=O)N1C[C@H](C)N(c2nc(=O)n3c4c(c(-c5ccc(F)cc5F)c(Cl)cc24)OC[C@H]3CN2CCN(C)CC2=O)C[C@H]1C [Example 280, (3R)-7-((2S,5R)-4-acryloyl-2,5-dimethylpiperazin-1-yl)-9-chloro-10-(2,4-difluorophenyl)-3-((4-methyl-2-oxopiperazin-1-yl)methyl)-2H-[1,4]oxazino[2,3,4-ij]quinazolin-5(3H)-one]",57.5
17,"C=CC(=O)N1C[C@H](C)N(c2nc(=O)n3c4c(c(-c5c(C)ccc6[nH]ncc56)c(Cl)cc24)OC[C@@H]3CCCN2C3CCC2COC3)C[C@H]1C [Example 281, (3S,10S)-3-(3-(3-oxa-8-azabicyclo[3.2.1]octan-8-yl)propyl)-7-((2S,5R)-4-acryloyl-2,5-dimethylpiperazin-1-yl)-9-chloro-10-(5-methyl-1H-indazol-4-yl)-2,3-dihydro-5H-[1,4]oxazino[2,3,4-ij]quinazolin-5-one]",0
18,"C=CC(=O)N1C[C@H](C)N(c2nc(=O)n3c4c(c(-c5c(C)ccc6[nH]ncc56)c(Cl)cc24)OC[C@@H]3CCCN2C3CCC2COC3)C[C@H]1C [Example 282, (3S,10R)-3-(3-(3-oxa-8-azabicyclo[3.2.1]octan-8-yl)propyl)-7-((2S,5R)-4-acryloyl-2,5-dimethylpiperazin-1-yl)-9-chloro-10-(5-methyl-1H-indazol-4-yl)-2,3-dihydro-5H-[1,4]oxazino[2,3,4-ij]quinazolin-5-one]",86
19,"C=CC(=O)N1C[C@H](C)N(c2nc(=O)n3c4c(c(-c5ccc(F)cc5F)c(Cl)cc24)OC[C@H]3CCCN2CCN(C)C(=O)C2)C[C@H]1C [Example 283, (3R)-7-((2S,5R)-4-acryloyl-2,5-dimethylpiperazin-1-yl)-9-chloro-10-(2,4-difluorophenyl)-3-(3-(4-methyl-3-oxopiperazin-1-yl)propyl)-2,3-dihydro-5H-[1,4]oxazino[2,3,4-ij]quinazolin-5-one]",92.4
20,"C=CC(=O)N1C[C@H](C)N(c2nc(=O)n3c4c(c(-c5ccc(F)cc5F)c(Cl)cc24)OC[C@H]3CCCN(C)CC(F)(F)F)C[C@H]1C [Example 284, (3R)-7-((2S,5R)-4-acryloyl-2,5-dimethylpiperazin-1-yl)-9-chloro-10-(2,4-difluorophenyl)-3-(3-(methyl(2,2,2-trifluoroethyl)amino)propyl)-2,3-dihydro-5H-[1,4]oxazino[2,3,4-ij]quinazolin-5-one]",92.4
21,"C=CC(=O)N1C[C@H](C)N(c2nc(=O)n3c4c(c(-c5ccc(F)cc5F)c(Cl)cc24)OC[C@H]3CN2C[C@H]3CC[C@@H](C2)N3C)C[C@H]1C [Example 285, (3R)-7-((2S,5R)-4-acryloyl-2,5-dimethylpiperazin-1-yl)-9-chloro-10-(2,4-difluorophenyl)-3-(((1R,5S)-8-methyl-3,8-diazabicyclo[3.2.1]octan-3-yl)methyl)-2H-[1,4]oxazino[2,3,4-ij]quinazolin-5(3H)-one]",86.2

# — patent US12162893B2 (Erasca, Inc., priority 2020, dated 2024)
